# Assay results from ChEMBL document CHEMBL4229328, “Quest for Novel Chemical Entities through Incorporation of Silicon in Drug Scaffolds” (J Med Chem, 2018).
# pEC50, pIC50, pKi: −log10 of the molar value.
# Assays:
# Chymotrypsinogen A = Chymotrypsinogen A (Bos taurus, UniProt P00766); assay: Inhibition of bovine alpha-chymotrypsin using succinyl Ala-Ala-Pro-Phe-p-nitroanilide as substrate after 1 hr by Dixon plot analysis
# [1] = molecular target: T1, Sigma intracellular receptor 2 (Rattus norvegicus, UniProt Q5U3Y7); assay: Displacement of [3H]-DTG from sigma-2 receptor in rat liver membranes after 180 mins by scintillation counting method; type: cell membranes, Membrane
# T1 sequence (Q5U3Y7 whole entry): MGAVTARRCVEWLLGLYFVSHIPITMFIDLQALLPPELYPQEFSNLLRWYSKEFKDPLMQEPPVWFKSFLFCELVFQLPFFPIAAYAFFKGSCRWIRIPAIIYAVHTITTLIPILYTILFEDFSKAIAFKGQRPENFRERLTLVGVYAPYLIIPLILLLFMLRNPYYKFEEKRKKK
# [2] = molecular target: Sigma non-opioid intracellular receptor 1 (Cavia porcellus, UniProt Q60492); assay: Displacement of [3H]-(+)pentazocine from sigma-1 receptor in guinea pig brain membranes after 180 mins by scintillation counting method; type: cell membranes, Membrane
# Histone deacetylase 2 = Histone deacetylase 2 (Homo sapiens, UniProt Q92769)
# Histone deacetylase 1 = Histone deacetylase 1 (Homo sapiens, UniProt Q13547); assay: Inhibition of human recombinant HDAC1 using Ac-Leu-Gly-Lys(Ac)-AMC as substrate preincubated for 30 mins followed by substrate addition and measured after 15 to 30 mins
# [3] = molecular target: Hydroxycarboxylic acid receptor 2 (Rattus norvegicus, UniProt Q80Z39); assay: Agonist activity at rat GPR109A expressed in T-REx-CHO cells assessed as inhibition of forskolin-stimulated cAMP accumulation preincubated for 30 mins followed by forskolin stimulation and measured after 20 mins by TR-FRET assay; type: functional, cell-based
# Protein Gpr81 = molecular target: T2, Protein Gpr81 (Rattus norvegicus, UniProt G3V906); assay: Agonist activity at rat GPR81 expressed in T-REx-CHO cells assessed as inhibition of forskolin-stimulated cAMP accumulation preincubated for 30 mins followed by forskolin stimulation and measured after 20 mins by TR-FRET assay; type: cell-based
# T2 sequence (G3V906 whole entry): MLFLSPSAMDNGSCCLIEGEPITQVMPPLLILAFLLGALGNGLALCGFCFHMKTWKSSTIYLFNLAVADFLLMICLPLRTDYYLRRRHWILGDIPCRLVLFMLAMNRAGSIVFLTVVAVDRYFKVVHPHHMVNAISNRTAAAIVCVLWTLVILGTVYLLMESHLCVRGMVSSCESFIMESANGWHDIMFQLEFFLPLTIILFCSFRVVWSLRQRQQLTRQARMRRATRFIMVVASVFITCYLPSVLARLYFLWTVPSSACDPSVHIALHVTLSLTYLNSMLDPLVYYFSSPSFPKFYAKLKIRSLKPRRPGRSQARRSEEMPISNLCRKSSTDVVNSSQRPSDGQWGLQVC
# [4] = Octanol-water distribution co-efficient, log D of the compound at pH 7.4; type: physicochemical
# Escherichia coli = type: functional, C3000 ATCC 15597
# Enterococcus faecalis = type: functional, ATCC 19433
# Staphylococcus aureus = type: functional
# Pseudomonas aeruginosa = type: functional, ATCC 10145
# MCF7 = assay: Cytotoxicity against human MCF7 cells after 24 hrs; type: functional, cell-based; details: MCF7, 24 h
# HT-29 = assay: Cytotoxicity against human HT-29 cells after 24 hrs; type: functional, cell-based; details: HT-29, 24 h
# [5] = molecular target: Sodium-dependent noradrenaline transporter (Homo sapiens, UniProt P23975); assay: Inhibition of human NET expressed in MDCK cells assessed as decrease in [3H]-noradrenaline reuptake after 10 mins by scintillation counting method; type: cell-based
# [6] = molecular target: Sodium-dependent dopamine transporter (Homo sapiens, UniProt Q01959); assay: Inhibition of human DAT expressed in CHOK1 cells assessed as decrease in [3H]-dopamine reuptake after 10 mins by scintillation counting method; type: cell-based
# [7] = molecular target: Sodium-dependent serotonin transporter (Homo sapiens, UniProt P31645); type: cell-based, HEK293
# [8] = molecular target: E3 ubiquitin-protein ligase XIAP (Homo sapiens, UniProt P98170, C202A/C213G); assay: Inhibition of N-terminal His-tagged XIAP BIR2-3 domain (125 to 356 residues) C202A/C213G mutant (unknown origin) using fluorescein labeled SMAC peptide as substrate after 60 mins by HTRF assay
# [9] = molecular target: E3 ubiquitin-protein ligase XIAP (Homo sapiens, UniProt P98170); assay: Inhibition of N-terminal His-tagged XIAP BIR3 domain (241 to 356 residues) (unknown origin) using fluorescein labeled SMAC peptide as substrate after 60 mins by TR-FRET assay
# [10] = Selectivity ratio of Ki for sigma-2 receptor in rat liver membranes to Ki for sigma-1 receptor in guinea pig brain membranes; type: cell membranes
# [11] = molecular target: Angiotensin-converting enzyme (Homo sapiens, UniProt P12821); assay: Inhibition of human ACE using Hip-His-Leu-OH as substrate after 1 hr by fluorimetric method
# Chain of Angiotensin-converting enzyme (P12821 whole entry): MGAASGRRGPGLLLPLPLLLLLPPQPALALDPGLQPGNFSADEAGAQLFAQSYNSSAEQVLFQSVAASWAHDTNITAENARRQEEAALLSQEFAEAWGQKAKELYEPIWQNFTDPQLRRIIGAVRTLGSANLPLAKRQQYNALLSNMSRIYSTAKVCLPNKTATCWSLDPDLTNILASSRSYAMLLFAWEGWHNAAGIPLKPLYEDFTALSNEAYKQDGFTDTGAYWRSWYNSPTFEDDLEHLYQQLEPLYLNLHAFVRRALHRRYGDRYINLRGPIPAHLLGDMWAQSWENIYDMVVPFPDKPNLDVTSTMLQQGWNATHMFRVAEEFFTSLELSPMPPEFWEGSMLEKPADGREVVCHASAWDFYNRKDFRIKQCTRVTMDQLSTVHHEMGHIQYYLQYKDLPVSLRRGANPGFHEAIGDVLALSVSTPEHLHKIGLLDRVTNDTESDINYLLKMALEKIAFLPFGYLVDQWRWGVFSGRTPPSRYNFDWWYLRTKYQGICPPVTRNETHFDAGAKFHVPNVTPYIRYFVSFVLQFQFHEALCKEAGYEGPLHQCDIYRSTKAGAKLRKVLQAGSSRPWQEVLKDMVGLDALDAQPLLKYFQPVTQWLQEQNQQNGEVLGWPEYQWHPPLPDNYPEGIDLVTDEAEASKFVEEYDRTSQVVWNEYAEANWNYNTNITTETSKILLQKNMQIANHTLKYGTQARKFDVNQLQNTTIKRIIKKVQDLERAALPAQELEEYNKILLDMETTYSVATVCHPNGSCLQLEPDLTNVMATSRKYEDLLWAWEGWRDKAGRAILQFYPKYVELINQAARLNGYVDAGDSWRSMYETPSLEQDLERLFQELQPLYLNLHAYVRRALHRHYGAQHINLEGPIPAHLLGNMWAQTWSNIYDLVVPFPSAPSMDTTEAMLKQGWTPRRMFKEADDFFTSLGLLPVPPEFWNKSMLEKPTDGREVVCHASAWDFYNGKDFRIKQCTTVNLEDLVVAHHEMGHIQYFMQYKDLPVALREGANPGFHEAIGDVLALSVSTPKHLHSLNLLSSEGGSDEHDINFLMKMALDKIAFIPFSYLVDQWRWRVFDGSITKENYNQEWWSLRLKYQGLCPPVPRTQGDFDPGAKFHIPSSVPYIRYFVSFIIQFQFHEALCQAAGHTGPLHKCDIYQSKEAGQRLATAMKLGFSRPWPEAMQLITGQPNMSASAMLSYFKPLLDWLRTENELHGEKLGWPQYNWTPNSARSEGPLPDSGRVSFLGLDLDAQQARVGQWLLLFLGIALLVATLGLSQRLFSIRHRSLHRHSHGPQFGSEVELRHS
# Chain of Hydroxycarboxylic acid receptor 2 (Q80Z39 whole entry): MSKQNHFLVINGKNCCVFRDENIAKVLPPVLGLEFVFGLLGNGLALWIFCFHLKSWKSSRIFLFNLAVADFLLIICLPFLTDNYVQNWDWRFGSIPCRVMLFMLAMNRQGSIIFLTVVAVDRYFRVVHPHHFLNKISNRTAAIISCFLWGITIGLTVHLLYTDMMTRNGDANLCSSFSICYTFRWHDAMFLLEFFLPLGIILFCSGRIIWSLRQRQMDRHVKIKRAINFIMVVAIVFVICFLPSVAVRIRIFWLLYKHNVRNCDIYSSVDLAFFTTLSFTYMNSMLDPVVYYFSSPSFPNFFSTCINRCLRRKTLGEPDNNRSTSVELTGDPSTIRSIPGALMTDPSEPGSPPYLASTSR
# Chain of Sigma non-opioid intracellular receptor 1 (Q60492 whole entry): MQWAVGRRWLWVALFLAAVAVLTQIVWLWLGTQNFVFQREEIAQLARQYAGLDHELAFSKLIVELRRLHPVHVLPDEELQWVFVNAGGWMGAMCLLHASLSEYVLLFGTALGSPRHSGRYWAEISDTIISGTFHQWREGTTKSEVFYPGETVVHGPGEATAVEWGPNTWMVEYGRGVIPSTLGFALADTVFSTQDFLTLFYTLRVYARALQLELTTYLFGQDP
# Chain of E3 ubiquitin-protein ligase XIAP (Homo sapiens, UniProt P98170, C202A/C213G) (P98170 whole entry C202A/C213G, the tested form may be a part): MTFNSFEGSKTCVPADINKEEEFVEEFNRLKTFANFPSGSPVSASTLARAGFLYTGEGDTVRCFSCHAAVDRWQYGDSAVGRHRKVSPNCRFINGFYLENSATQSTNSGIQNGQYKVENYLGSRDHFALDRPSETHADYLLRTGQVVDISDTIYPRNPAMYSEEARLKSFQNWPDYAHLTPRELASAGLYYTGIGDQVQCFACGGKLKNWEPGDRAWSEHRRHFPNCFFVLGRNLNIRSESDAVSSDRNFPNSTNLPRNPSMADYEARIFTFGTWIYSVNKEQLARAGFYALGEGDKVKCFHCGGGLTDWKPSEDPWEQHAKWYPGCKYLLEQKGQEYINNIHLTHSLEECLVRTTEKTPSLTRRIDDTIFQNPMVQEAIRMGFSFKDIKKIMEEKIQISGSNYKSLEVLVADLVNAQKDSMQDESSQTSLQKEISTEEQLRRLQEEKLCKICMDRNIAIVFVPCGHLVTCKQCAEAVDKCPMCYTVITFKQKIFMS
# Chain of Histone deacetylase 1 (Q13547 whole entry): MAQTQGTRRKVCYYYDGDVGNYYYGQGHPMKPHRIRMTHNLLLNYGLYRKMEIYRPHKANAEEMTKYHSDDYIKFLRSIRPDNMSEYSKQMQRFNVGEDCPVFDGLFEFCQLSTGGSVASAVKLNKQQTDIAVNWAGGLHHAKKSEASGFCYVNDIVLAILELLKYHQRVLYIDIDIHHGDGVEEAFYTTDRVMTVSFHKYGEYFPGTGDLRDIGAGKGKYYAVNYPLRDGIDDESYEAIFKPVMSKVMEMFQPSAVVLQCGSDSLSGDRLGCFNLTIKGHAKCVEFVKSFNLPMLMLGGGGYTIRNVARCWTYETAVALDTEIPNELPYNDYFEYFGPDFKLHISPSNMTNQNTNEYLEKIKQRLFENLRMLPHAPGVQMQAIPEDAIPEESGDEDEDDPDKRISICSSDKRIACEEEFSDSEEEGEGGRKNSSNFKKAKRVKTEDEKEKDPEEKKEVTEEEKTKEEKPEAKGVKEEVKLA
# Chain of Sodium-dependent serotonin transporter (P31645 whole entry, the tested form may be a part): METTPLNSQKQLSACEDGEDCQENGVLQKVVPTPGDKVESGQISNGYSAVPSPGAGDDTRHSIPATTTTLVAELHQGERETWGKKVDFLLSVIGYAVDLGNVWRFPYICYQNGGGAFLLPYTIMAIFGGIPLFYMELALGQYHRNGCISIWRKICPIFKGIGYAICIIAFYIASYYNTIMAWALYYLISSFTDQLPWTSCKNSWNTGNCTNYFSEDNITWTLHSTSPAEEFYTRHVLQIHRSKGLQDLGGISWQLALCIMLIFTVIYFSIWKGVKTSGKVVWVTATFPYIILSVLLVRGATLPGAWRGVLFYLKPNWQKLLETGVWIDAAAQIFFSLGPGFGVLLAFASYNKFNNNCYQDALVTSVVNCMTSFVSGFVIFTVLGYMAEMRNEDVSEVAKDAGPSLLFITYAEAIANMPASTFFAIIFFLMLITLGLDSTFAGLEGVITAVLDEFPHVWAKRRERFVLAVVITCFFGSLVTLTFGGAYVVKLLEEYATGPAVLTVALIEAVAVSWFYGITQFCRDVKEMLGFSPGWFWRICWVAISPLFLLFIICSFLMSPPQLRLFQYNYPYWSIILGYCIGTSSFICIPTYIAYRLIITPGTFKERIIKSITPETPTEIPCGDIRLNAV
# Chain of Sodium-dependent dopamine transporter (Q01959 whole entry): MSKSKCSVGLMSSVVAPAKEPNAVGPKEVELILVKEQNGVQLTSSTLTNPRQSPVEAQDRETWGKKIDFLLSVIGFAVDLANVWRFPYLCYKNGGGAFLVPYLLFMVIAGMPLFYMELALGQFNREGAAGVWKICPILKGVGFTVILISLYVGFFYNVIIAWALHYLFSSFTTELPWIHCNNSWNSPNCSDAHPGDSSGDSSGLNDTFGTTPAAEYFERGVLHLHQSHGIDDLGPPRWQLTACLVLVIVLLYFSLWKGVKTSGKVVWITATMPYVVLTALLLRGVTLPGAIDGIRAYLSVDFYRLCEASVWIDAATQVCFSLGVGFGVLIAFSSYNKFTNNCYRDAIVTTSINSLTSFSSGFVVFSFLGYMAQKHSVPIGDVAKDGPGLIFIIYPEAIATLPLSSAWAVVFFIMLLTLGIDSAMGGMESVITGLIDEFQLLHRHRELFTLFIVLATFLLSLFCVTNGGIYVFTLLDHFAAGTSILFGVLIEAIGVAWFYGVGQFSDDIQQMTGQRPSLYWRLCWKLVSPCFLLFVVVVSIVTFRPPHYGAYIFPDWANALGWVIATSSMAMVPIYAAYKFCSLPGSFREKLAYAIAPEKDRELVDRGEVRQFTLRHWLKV
# Chain of E3 ubiquitin-protein ligase XIAP (Homo sapiens, UniProt P98170) (P98170 whole entry, the tested form may be a part): as the sequence (P98170 whole entry C202A/C213G, the tested form may be a part) above, with A202C, G213C counted along it
# Chain of Sodium-dependent noradrenaline transporter (P23975 whole entry): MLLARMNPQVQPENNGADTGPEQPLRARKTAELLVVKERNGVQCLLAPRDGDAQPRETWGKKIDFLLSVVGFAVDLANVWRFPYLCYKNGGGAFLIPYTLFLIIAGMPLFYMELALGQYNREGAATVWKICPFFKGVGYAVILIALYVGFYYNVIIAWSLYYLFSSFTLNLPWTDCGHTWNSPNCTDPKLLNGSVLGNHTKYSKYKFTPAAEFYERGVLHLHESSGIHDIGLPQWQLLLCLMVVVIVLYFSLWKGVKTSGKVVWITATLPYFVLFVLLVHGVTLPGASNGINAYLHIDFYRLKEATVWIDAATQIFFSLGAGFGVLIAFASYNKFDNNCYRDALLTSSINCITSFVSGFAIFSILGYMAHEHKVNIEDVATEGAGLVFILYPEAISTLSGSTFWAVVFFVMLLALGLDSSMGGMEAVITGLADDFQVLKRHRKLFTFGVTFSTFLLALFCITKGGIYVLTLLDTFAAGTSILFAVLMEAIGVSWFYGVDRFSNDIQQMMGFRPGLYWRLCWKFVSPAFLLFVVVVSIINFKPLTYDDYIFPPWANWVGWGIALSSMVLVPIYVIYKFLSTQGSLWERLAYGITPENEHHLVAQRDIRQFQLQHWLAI
compound,measurement,setting,value
C[C@H](C[Si](O)(O)[C@H](Cc1ccccc1)NC(=O)[C@@H]1CCCN1)C(N)=O,pKi,Chymotrypsinogen A,6.97
COc1ccc(CN2CC[Si]3(CCCc4ccccc43)CC2)cc1,pKi,[1],6.34
same,pKi,[2],8.57
C[Si](O)(O)CCCCCCC(=O)Nc1ccccc1,pIC50,Histone deacetylase 2,5.20
same,pIC50,Histone deacetylase 1,5.57
c1ccc(CN2CCC3(CCCc4ccccc43)CC2)cc1,pKi,[1],7.36
same,pKi,[2],8.70
CCOc1cc(Cl)c(C(=O)NC(=O)Nc2nc3c(s2)C[Si](C)(c2c(OC)cccc2OC)CC3)cc1N1CCOCC1 (centres undefined),pEC50,[3],5.89
same,pEC50,Protein Gpr81,5.92
same,logD,[4],4.6
C[Si](C)(O)c1ccccc1,MLC,Escherichia coli,0.27%
same,MLC,Enterococcus faecalis,0.42%
same,MLC,Staphylococcus aureus,0.26%
same,MLC,Pseudomonas aeruginosa,0.35%
c1ccc(CCN2CCC3(CCCc4ccccc43)CC2)cc1,pKi,[1],7.47
same,pKi,[2],8.10
C=CC(C)(C)O,MLC,Escherichia coli,5.23%
same,MLC,Enterococcus faecalis,5.63%
same,MLC,Staphylococcus aureus,4.37%
same,MLC,Pseudomonas aeruginosa,3.67%
c1ccc(CCN2CC[Si]3(CCCc4ccccc43)CC2)cc1,pKi,[1],7.41
same,pKi,[2],8.54
CCOc1cc(Cl)c(C(=O)NC(=O)Nc2nc3c(s2)C[Si](C)(c2ccc(OC)cc2)CC3)cc1N1CCOCC1 (centres undefined),pEC50,[3],5.92
same,pEC50,Protein Gpr81,6.00
same,logD,[4],4.8
CCOC(=O)/C(=N/NC(=O)c1ccc(CO[Si](C)(C)C(C)(C)C)o1)c1ccccc1,IC50,MCF7,13.3 µg/mL
same,IC50,HT-29,8.6 µg/mL
CC(C)CCN1CCC2(CCCc3ccccc32)CC1,pKi,[1],8.26
same,pKi,[2],8.74
CCC(C)(C)O [AMYLENE HYDRATE],MLC,Escherichia coli,5.09%
same,MLC,Enterococcus faecalis,5.67%
same,MLC,Staphylococcus aureus,4.17%
same,MLC,Pseudomonas aeruginosa,3.96%
CC(C)OC(=O)/C(=N/NC(=O)c1ccc(CO[Si](C)(C)C(C)(C)C)o1)c1ccccc1,IC50,MCF7,3.6 µg/mL
same,IC50,HT-29,6.4 µg/mL
COc1ccc(C(CN(C)C)[Si]2(O)CCCC2)cc1 (racemic),pIC50,[5],6.56
same,pIC50,[6],6.15
same,pIC50,[7],6.04
CCOc1cc(Cl)c(C(=O)NC(=O)Nc2nc3c(s2)CCCC3)cc1N1CCOCC1,pEC50,[3],5.68
same,pEC50,Protein Gpr81,6.62
same,logD,[4],4.2
COc1ccc(CN2CCC3(CCCc4ccccc43)CC2)cc1,pKi,[1],6.69
same,pKi,[2],8.42
CC(C)(C)O [TERT-BUTANOL],MLC,Escherichia coli,13.54%
same,MLC,Enterococcus faecalis,13.33%
same,MLC,Staphylococcus aureus,10.61%
same,MLC,Pseudomonas aeruginosa,9.79%
CN[C@@H](C)C(=O)N[C@@H](Cc1ccc(C#CC(=O)N[C@H]2C[C@@H](C(=O)N[C@@H]3CCCc4ccccc43)N(C(=O)[C@@H](NC(=O)[C@H](C)NC)C(C)(C)C)C2)cc1)C(=O)N1C[Si](C)(C)C[C@H]1C(=O)N[C@@H]1CCCc2ccccc21,pIC50,[8],8.40
same,pIC50,[9],8.52
C=C[Si](C)(C)O,MLC,Escherichia coli,1.23%
same,MLC,Enterococcus faecalis,1.32%
same,MLC,Staphylococcus aureus,1.04%
same,MLC,Pseudomonas aeruginosa,1%
c1ccc(CN2CC[Si]3(CCCc4ccccc43)CC2)cc1,Ratio Ki,[10],221
same,pKi,[1],6.61
same,pKi,[2],8.96
COC(=O)/C(=N/NC(=O)c1ccc(CO[Si](C)(C)C(C)(C)C)o1)c1ccccc1,IC50,MCF7,13.3 µg/mL
CC(C)CCN1CC[Si]2(CCCc3ccccc32)CC1,Ratio Ki,[10],63
same,pKi,[1],7.72
same,pKi,[2],9.52
C[C@H](CS)C(=O)N1C[Si](C)(C)C[C@H]1C(=O)O,pIC50,[11],7.37
CC[Si](C)(C)O,MLC,Escherichia coli,1.04%
same,MLC,Enterococcus faecalis,1.14%
same,MLC,Staphylococcus aureus,0.8%
same,MLC,Pseudomonas aeruginosa,0.87%
CC(C)(O)c1ccccc1,MLC,Escherichia coli,0.96%
same,MLC,Enterococcus faecalis,0.93%
same,MLC,Staphylococcus aureus,0.78%
same,MLC,Pseudomonas aeruginosa,0.71%
